Data taken from patent US20250176599A1, “FLAVOR COMPOSITION AND FOOD AND BEVERAGE” (TAKASAGO INTERNATIONAL CORPORATION, priority 2021, published 2025).

Key:
[1] = Sensory evaluation of aqueous solution I containing (E)-2-nonenal 1 ppb: off-flavor intensity and masking component intensity; details: (E)-2-nonenal 1 ppb, average score 0-4
Method in brief: (§1)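 8 trained panelists; degradant in ion-exchanged water + nootkatone. Off-flavor 0–4, relative (no masker = 4, water = 0); masker flavor 0–4, absolute.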

[2] = Sensory evaluation of aqueous solution II containing (E)-2-octenal 10 ppb: off-flavor intensity and masking component intensity; details: (E)-2-octenal 10 ppb, average score 0-4
Method in brief: as §1

[3] = Sensory evaluation of aqueous solution III containing 1-octen-3-one 1 ppb: off-flavor intensity and masking component intensity; details: 1-octen-3-one 1 ppb, average score 0-4
Method in brief: as §1

[4] = Sensory evaluation of aqueous solution IV containing 1,5-octadien-3-one 100 ppt: off-flavor intensity and masking component intensity; details: aqueous solution IV, 1,5-octadien-3-one 100 ppt, average score 0-4
Method in brief: as §1

[5] = Sensory evaluation of aqueous solution V containing 1-octen-3-ol 10 ppb: off-flavor intensity and masking component intensity; details: 1-octen-3-ol 10 ppb, average score 0-4
Method in brief: as §1

[6] = Sensory evaluation of aqueous solution VI containing 1,5-octadien-3-ol 10 ppb: off-flavor intensity and masking component intensity; details: aqueous solution VI, 1,5-octadien-3-ol 10 ppb, average score 0-4
Method in brief: as §1

[7] = Sensory evaluation of degradation component-added soymilk I ((E)-2-nonenal 5 ppb); details: average panel score
Experimental: (§2) To commercially available soymilk (“Delicious Unadjusted Soymilk” manufactured by Kikkoman Corporation), each degradation component was added to prepare degradation component-added soymilks at the concentrations listed in Table 23. To these degradation component-added soymilks, 1,4-dioxacycloheptadecan-5,17-dione was added at the concentrations listed in Table 23 to confirm the intensity of the off-flavor (masking effect) and the intensity of the masking components (impact on the flavor of the soymilk itself) for each sample.
(§3) Eight experienced panelists were selected to conduct a sensory evaluation similar to that of Example 1. […]

[8] = Sensory evaluation of degradation component-added soymilk II (1-octen-3-ol 500 ppb); details: average panel score
Experimental: as §2, §3

[9] = Overall conclusion of the sensory evaluation across aqueous solutions I to VI
Method in brief: as §1

[10] = Overall conclusion of the sensory evaluation across soymilks I and II
Experimental: as §2
Eight experienced panelists were selected to conduct a sensory evaluation similar to that of Example 1.
The same method as in Example 20 was used to confirm the intensity of the off-flavor (masking effect) derived from unsaturated fatty acids by α-methyl ionone and the intensity of the masking components (impact on the flavor of the soymilk itself).
The same method as in Example 20 was used to confirm the intensity of the off-flavor (masking effect) derived from unsaturated fatty acids by menthyl 3-hydroxybutyrate and the intensity of the masking components (impact on the flavor of the soymilk itself).

With `O=C1CCCCCCCCCCCC(=O)OCCO1` [1,4-Dioxacycloheptadecan-5,17-Dione, 1,4-dioxacycloheptadecan-5,17-dione] the “Off-Flavor Intensity” value ([1]; 0.001 ppt added) was 3.5 points, the “Off-Flavor Intensity” value ([1]; 0.01 ppt added) was 3.3 points and the “Off-Flavor Intensity” value ([1]; 0.1 ppt added) was 2.9 points. For the same compound, the “Off-Flavor Intensity” value ([1]; 1 ppb added) was 1.6 points, the “Off-Flavor Intensity” value ([1]; 1 ppt added) was 2.8 points and the “Off-Flavor Intensity” value ([1]; 10 ppb added) was 1.0 points. The “Off-Flavor Intensity” value ([1]; 10 ppt added) was 2.3 points, the “Off-Flavor Intensity” value ([1]; 100 ppb added) was 0.3 points and the “Off-Flavor Intensity” value ([1]; 100 ppt added) was 2.0 points. The “Off-Flavor Intensity” value ([2]; 0.001 ppt added) was 3.4 points, the “Off-Flavor Intensity” value ([2]; 0.01 ppt added) was 3.4 points and the “Off-Flavor Intensity” value ([2]; 0.1 ppt added) was 3.1 points. The “Off-Flavor Intensity” value ([2]; 1 ppb added) was 1.8 points, the “Off-Flavor Intensity” value ([2]; 1 ppt added) was 2.8 points and the “Off-Flavor Intensity” value ([2]; 10 ppb added) was 1.5 points. The “Off-Flavor Intensity” value ([2]; 10 ppt added) was 2.4 points, the “Off-Flavor Intensity” value ([2]; 100 ppb added) was 0.6 points and the “Off-Flavor Intensity” value ([2]; 100 ppt added) was 2.0 points. For the same compound, the “Off-Flavor Intensity” value ([3]; 0.001 ppt added) was 3.6 points, the “Off-Flavor Intensity” value ([3]; 0.01 ppt added) was 3.4 points and the “Off-Flavor Intensity” value ([3]; 0.1 ppt added) was 3.0 points. The “Off-Flavor Intensity” value ([3]; 1 ppb added) was 1.4 points, the “Off-Flavor Intensity” value ([3]; 1 ppt added) was 2.6 points and the “Off-Flavor Intensity” value ([3]; 10 ppb added) was 1.0 points. The “Off-Flavor Intensity” value ([3]; 10 ppt added) was 2.4 points, the “Off-Flavor Intensity” value ([3]; 100 ppb added) was 0.3 points and the “Off-Flavor Intensity” value ([3]; 100 ppt added) was 1.8 points. The “Off-Flavor Intensity” value ([4]; 0.001 ppt added) was 3.8 points, the “Off-Flavor Intensity” value ([4]; 0.01 ppt added) was 3.5 points and the “Off-Flavor Intensity” value ([4]; 0.1 ppt added) was 3.4 points. The “Off-Flavor Intensity” value ([4]; 1 ppb added) was 2.1 points, the “Off-Flavor Intensity” value ([4]; 1 ppt added) was 3.0 points and the “Off-Flavor Intensity” value ([4]; 10 ppb added) was 1.6 points. The “Off-Flavor Intensity” value ([4]; 10 ppt added) was 2.9 points, the “Off-Flavor Intensity” value ([4]; 100 ppb added) was 1.0 points and the “Off-Flavor Intensity” value ([4]; 100 ppt added) was 2.8 points. The “Off-Flavor Intensity” value ([5]; 0.001 ppt added) was 3.4 points, the “Off-Flavor Intensity” value ([5]; 0.01 ppt added) was 3.1 points and the “Off-Flavor Intensity” value ([5]; 0.1 ppt added) was 2.9 points. The “Off-Flavor Intensity” value ([5]; 1 ppb added) was 1.9 points, the “Off-Flavor Intensity” value ([5]; 1 ppt added) was 2.8 points and the “Off-Flavor Intensity” value ([5]; 10 ppb added) was 1.4 points. The “Off-Flavor Intensity” value ([5]; 10 ppt added) was 2.5 points, the “Off-Flavor Intensity” value ([5]; 100 ppb added) was 0.5 points and the “Off-Flavor Intensity” value ([5]; 100 ppt added) was 2.1 points. For the same compound, the “Off-Flavor Intensity” value ([6]; 0.001 ppt added) was 3.3 points, the “Off-Flavor Intensity” value ([6]; 0.01 ppt added) was 3.0 points and the “Off-Flavor Intensity” value ([6]; 0.1 ppt added) was 2.9 points. For the same compound, the “Off-Flavor Intensity” value ([6]; 1 ppb added) was 1.8 points, the “Off-Flavor Intensity” value ([6]; 1 ppt added) was 2.5 points and the “Off-Flavor Intensity” value ([6]; 10 ppb added) was 1.4 points. The “Off-Flavor Intensity” value ([6]; 10 ppt added) was 2.5 points, the “Off-Flavor Intensity” value ([6]; 100 ppb added) was 0.9 points and the “Off-Flavor Intensity” value ([6]; 100 ppt added) was 2.1 points. The “Masking Component Intensity” value ([7]; 1 ppb added) was 0.3, the “Off-Flavor Intensity” value ([7]; 1 ppb added) was 2.3 and the “Masking Component Intensity” value ([7]; 1 ppm added) was 2.6. The “Off-Flavor Intensity” value ([7]; 1 ppm added) was 0.6, the “Masking Component Intensity” value ([7]; 10 ppb added) was 1.0 and the “Off-Flavor Intensity” value ([7]; 10 ppb added) was 1.8. For the same compound, the “Masking Component Intensity” value ([7]; 10 ppt added) was 0.0, the “Off-Flavor Intensity” value ([7]; 10 ppt added) was 3.0 and the “Masking Component Intensity” value ([7]; 100 ppb added) was 1.9. The “Off-Flavor Intensity” value ([7]; 100 ppb added) was 1.0, the “Masking Component Intensity” value ([7]; 100 ppt added) was 0.0 and the “Off-Flavor Intensity” value ([7]; 100 ppt added) was 2.9. The “Masking Component Intensity” value ([8]; 1 ppb added) was 0.9, the “Off-Flavor Intensity” value ([8]; 1 ppb added) was 1.8 and the “Masking Component Intensity” value ([8]; 1 ppm added) was 2.8. For the same compound, the “Off-Flavor Intensity” value ([8]; 1 ppm added) was 0.5, the “Masking Component Intensity” value ([8]; 10 ppb added) was 1.3 and the “Off-Flavor Intensity” value ([8]; 10 ppb added) was 1.3. For the same compound, the “Masking Component Intensity” value ([8]; 10 ppt added) was 0.4, the “Off-Flavor Intensity” value ([8]; 10 ppt added) was 2.5 and the “Masking Component Intensity” value ([8]; 100 ppb added) was 2.1. For the same compound, the “Off-Flavor Intensity” value ([8]; 100 ppb added) was 1.0, the “Masking Component Intensity” value ([8]; 100 ppt added) was 0.5 and the “Off-Flavor Intensity” value ([8]; 100 ppt added) was 2.0. The “concentration that masks the off-flavor and does not affect the flavor of the food and/or beverage itself, lower limit” value [9] was at least 0.01 ppt, the “concentration that masks the off-flavor and does not affect the flavor of the food and/or beverage itself, upper limit” value [9] was at most 10 ppb and the “concentration that masks the off-flavor and does not affect the flavor of the soymilk itself, lower limit” value [10] was at least 10 ppt. The “concentration that masks the off-flavor and does not affect the flavor of the soymilk itself, upper limit” value [10] was at most 1 ppm.
